Columns and labels:
[1] = tested on: SNK6 cells; test: Peptide delivery efficiency, 125I-labeled uptake assay; format: in vitro ADME, human; settings: 125I label on tyrosine, 0.5 µM peptide, 6-h incubation, media and cells counted by liquid scintillation counter, mean, n = 4 (Fig S1)
From the text: We investigated the potential role of HKDC1-based peptides in ENKTL cells that were isolated from the MNCs of ENKTL patients or SNK6 cell line. Three different kinds of HKDC1-based targeting peptides, including the last 15 aa at either the N-terminal (HKN15) or C-terminal (HKC15), or the last eight aa at the C-terminal (HKC8) were selected; four different kinds of cell-penetrating sequences were employed to deliver the HKDC1-based peptides, including Antp (a 16 penetrating residue long sequence from the Drosophila antennapedia-homeodomain), penetration-accelerating segment, TAT (HIV-1 TAT sequence), and Tf (the Tf receptor (TfR) internalization sequence) sequences. All of the aa with the D-configuration (marked as D) were synthesized as retro-inverso peptides. […] We then evaluated the toxic effect of two peptides (including Tf-D-HKC15 and Tf-D-HKC8) on different kinds of primary and cancer cell lines (see details in Table 2). […] We also evaluated the peptide delivery efficiency using ^125I-labeled uptake assay for both Tf-D-HKC8 and Tf-D-HKC15 peptides. […]
Figure S1. […] 0.5µM each of peptide was incubated with SNK6 cells for 6 hours, then both culture media and SNK6 cells were harvested for radioactivity assay using Liquid Scintillation Counter. n=4. *, P<0.05, vs Intracellular group. Results were expressed as mean ± SEM.

[2] = tested on: SNK6 cells; test: ROS formation (CM-H2DCFDA); format: cell-based, human; settings: 0.5 µM peptide, 6 h, compared with CTL group, n = 5 (Fig. 3a)
Method: Measurement of ROS generation. Treated cells were seeded in a 24-well plate and incubated with 10μM CM-H2DCFDA (Invitrogen) for 45 min at 37°C, and then the intracellular formation of reactive oxygen species (ROS) was measured at excitation/emission wavelengths of 485/530nm using a FLx800 microplate fluorescence reader (Bio-Tek). The data was normalized as arbitrary units (8, 11).

[3] = tested on: EBV; test: EBV viral genomes/cell by qPCR in SNK6 cells; format: cell-based; settings: 0.5 µM peptide, 6 h, vs CTL, n = 4 (Fig. 3i)
Method: (§1) Detection of EBV copy number. Genomic DNA was extracted from treated SNK-6 cells or SNK-6 tumor tissue in mice using a QIAamp DNA Mini Kit (Qiagen). The EBV DNA copy number was measured through qPCR using 50ng of total DNA with EBV BMRF1 primers (see Table 1), and the results were normalized using cellular β-actin (primers see Table 1) as an internal control (13, 14). The Namalwa cell line, which contains 2 EBV viral genome copies, was used as a standard to prepare calibration curves for both EBV BMRF1 and β-actin genes, and the EBV viral load was presented as the number of viral genomes per cell (15, 16).

[4] = tested on: SNK6 cells; test: Apoptosis rate by TUNEL assay; format: cell-based, human; settings: 0.5 µM peptide, 6 h, compared with CTL group, n = 5 (Fig. 4h)
Method: Measurement of apoptosis and cell death. Apoptosis was evaluated by TUNEL assay using the In Situ Cell Death Detection Kit™ (Roche). Cells were fixed in 4% paraformaldehyde and labeled with TUNEL reagents. Stained cells were photographed by a fluorescence microscope (11). For cell death analysis, the propidium iodide (PI) staining was performed by addition of 6.25 µg/ml of PI to the cells, and cell death was immediately evaluated by FACS analysis (3).

[5] = tested on: SNK6 cells; settings: 0.5 µM peptide, 6 h, vs CTL, n = 3 (Fig. 5g)
Method: Immunostaining. […] The cells were then washed three times and the FITC labeled anti-mouse secondary antibody (1:100) was added for blotting for another 1 hour. After thorough washing, the slides were visualized and photographed, the nuclei of cells were stained with 4’,6-diamidino-2-phenylindole dihydrochloride (DAPI, #D9542, from Sigma), and the positive Ki-67 cells were quantitated.

[6] = tested on: SNK6 xenograft; test: Superoxide anion release from tumor tissue; format: in vivo, mouse; settings: nude mice, intratumoral 50 µM peptide every 2 days from day ~18, tissue day 50, chemiluminescence vs CTL, n = 5
Method: In vivo superoxide release analysis. Superoxide anion (O2^.-) release from tumor tissues was determined using a luminol-EDTA-Fe enhanced chemiluminescence (CL) system supplemented with DMSO-TBAC (Dimethyl sulfoxide-tetrabutyl-ammonium chloride) solution for extraction of released O2^.- from tissues, as described previously (11). Superoxide levels were calculated from the standard curve generated by the xanthine/xanthine oxidase reaction (8).

[7] = tested on: EBV; test: EBV viral genomes/cell by qPCR in tumor tissue; format: in vivo, mouse; settings: SNK6 xenograft, nude mice; intratumoral 50 µM peptide every 2 days from day ~18; tissue day 50; qPCR vs CTL; n = 4
Method: as §1

[8] = tested on: Zta; settings: SNK6 xenograft, nude mice; intratumoral 50 µM peptide every 2 days from day ~18; tissue day 50; IHC vs CTL; n = 3
Method: To measure malignant SNK6 xenograft growth, 100 µl of 1 × 10^5 SNK6 cells in PBS were mixed with 100 µl growth factor-reduced basement membrane matrix (Matrigel™, BD Biosciences) resulting in 200 µl of solution that was injected subcutaneously along the mouse flank at each intended tumor site. Tumor size was measured using a digital caliper and volume was calculated, and mice were randomly divided into four groups (n = 9 per group) when the tumor volume reached 50–100 mm^3 on day ~18 after tumor inoculation and given treatment as follows: Group 1 (control (CTL)) was intratumorally injected with HBSS buffer (5.33 mM KCl, 0.44 mM KH2PO4, 138 mM NaCl, 4 mM NaHCO3, 0.3 mM Na2HPO4, and 5.6 mM glucose, pH 7.3) containing 0.05% DMSO; Group 2 (Tf-D-HKN15) received HBSS buffer containing 0.05% DMSO with 50 µM Tf-D-HKN15 peptides; Group 3 (Tf-D-HKC15) received HBSS buffer containing 0.05% DMSO with 50 µM Tf-D-HKC15 peptides; Group 4 (Tf-D-HKC8) received HBSS buffer containing 0.05% DMSO with 50 µM Tf-D-HKC8 peptides. […] Beginning on the day of inoculation, mouse weight and tumor volume were monitored every 2 days. Mice were monitored for changes in body weight and sacrificed when values fell below 20% of their initial weight; the survival curve was calculated and the final tumor tissues were isolated for biomedical analysis. […]

[9] = target: HKDC1/VDAC1 (Homo sapiens, UniProt P21796); test: IP/WB HKDC1 binding with VDAC1 in xenograft tumor tissue; format: in vivo, mouse; parameters: from tissue; host or cells: SNK6 xenograft tumor tissue from Balb/c athymic nude mice; settings: SNK6 xenograft, nude mice; intratumoral 50 µM peptide every 2 days from day ~18; tissue day 50; IP/WB vs CTL; n = 5
Sequence of HKDC1/VDAC1 (P21796 2-283 limits assumed): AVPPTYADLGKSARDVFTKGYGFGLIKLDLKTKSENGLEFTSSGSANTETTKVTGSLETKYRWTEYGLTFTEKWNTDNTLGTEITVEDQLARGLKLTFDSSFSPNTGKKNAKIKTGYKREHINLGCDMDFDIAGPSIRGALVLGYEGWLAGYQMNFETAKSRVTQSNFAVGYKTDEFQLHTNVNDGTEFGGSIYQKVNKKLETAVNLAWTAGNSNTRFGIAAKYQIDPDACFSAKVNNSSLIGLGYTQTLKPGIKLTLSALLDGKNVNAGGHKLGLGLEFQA
Method: Immunoprecipitation (IP) and Western Blotting (WB). Cell lysates were pre-cleared by pre-immune IgG plus Protein A agarose beads for 2 hours, and the supernatants were immunoprecipitated by the indicated antibodies and a 50% slurry of Protein A Agarose beads overnight at 4 °C (9). After washing with buffer containing 50 mM Tris, pH 7.5, 150 mM NaCl, 1% NP-40, and 0.5% deoxycholate with protease inhibitors, proteins were released, separated on 10% SDS-PAGE gels, blotted by primary antibodies, and then simultaneously incubated with the differentially labeled species-specific secondary antibodies, anti-RABBIT IRDye™ 800CW (green) and anti-MOUSE (or goat) ALEXA680 (red). Membranes were scanned and quantitated by the ODYSSEY Infrared Imaging System (LI-COR, NE) (10).
Biomedical analysis of tumor tissues.

| Substance | peptide delivered into SNK6 cells (delivery efficiency) [1] [%] | ROS formation [2] [%] | EBV genome copies [3] [%] | apoptosis rate increase [4] [fold] | cell proliferation by quantitation of Ki-67 positive cells [5] [%] | superoxide anion release from tumor [6] [%] | EBV genome replication in tumor [7] [%] | Zta gene expression on tumor tissues (IHC) [8] [%] | HKDC1 binding with VDAC1 in tumor [9] [%] |
| --- | --- | --- | --- | --- | --- | --- | --- | --- | --- |
| HAIYPRH-ITAVAKRLQQAQKEN [Tf-D-HKC15] | 35.6 | 165 | 62 | 2.91 | 70 | 203 | 59 | 64 | 71 |
| HAIYPRH-LQQAQKEN [Tf-D-HKC8] | 53.4 | 229 | 21 | 11.4 | 27 | 297 | 25 | 28 | 38 |

Source: PMC7515829, “HKDC1 C-terminal based peptides inhibit extranodal natural killer/T-cell lymphoma by modulation of mitochondrial function and EBV suppression” (Leukemia, 2020)
